These results are taken from patent US9241916B2, “Cognitive performance with sirtuin activators” (President and Fellows of Harvard College, priority 2005, dated 2016).

The structures appear in SMILES notation. Entries after “also recorded” stand apart in the source; their conditions may differ.

Data set [1] deals with mice. The experiment in a line: Ethanol-induced impairment of context-dependent fear conditioning. The data set is classed as in vivo. From the text: (§1) The principle of Pavlovian fear conditioning is as follows. During the training procedure mice are exposed to a novel context (context 1), consisting of an observation chamber with defined lightning, odor, background noise and geometry. After exploring this novel environment for 180 s the animals are exposed to a tone for 30 s followed by a mild electric foot shock for 2 s. On the basis of associative learning mice display aversive freezing behavior during a memory test consisting of re-expose to the conditioning context 24 h after the training. […] Tone-dependent fear memories can be analyzed by presenting the tone in context 2. Freezing is an inborn behavior that rodents express in threatening situations. It is defined as the complete absence of movement, except respiration and heartbeat. […] Therefore, freezing behavior is commonly used to quantify the amount of learning.

Another data set has as its target T1, Sirt1 deacetylase (Homo sapiens, UniProt Q96EB6).
T1 sequence (Q96EB6 1-747): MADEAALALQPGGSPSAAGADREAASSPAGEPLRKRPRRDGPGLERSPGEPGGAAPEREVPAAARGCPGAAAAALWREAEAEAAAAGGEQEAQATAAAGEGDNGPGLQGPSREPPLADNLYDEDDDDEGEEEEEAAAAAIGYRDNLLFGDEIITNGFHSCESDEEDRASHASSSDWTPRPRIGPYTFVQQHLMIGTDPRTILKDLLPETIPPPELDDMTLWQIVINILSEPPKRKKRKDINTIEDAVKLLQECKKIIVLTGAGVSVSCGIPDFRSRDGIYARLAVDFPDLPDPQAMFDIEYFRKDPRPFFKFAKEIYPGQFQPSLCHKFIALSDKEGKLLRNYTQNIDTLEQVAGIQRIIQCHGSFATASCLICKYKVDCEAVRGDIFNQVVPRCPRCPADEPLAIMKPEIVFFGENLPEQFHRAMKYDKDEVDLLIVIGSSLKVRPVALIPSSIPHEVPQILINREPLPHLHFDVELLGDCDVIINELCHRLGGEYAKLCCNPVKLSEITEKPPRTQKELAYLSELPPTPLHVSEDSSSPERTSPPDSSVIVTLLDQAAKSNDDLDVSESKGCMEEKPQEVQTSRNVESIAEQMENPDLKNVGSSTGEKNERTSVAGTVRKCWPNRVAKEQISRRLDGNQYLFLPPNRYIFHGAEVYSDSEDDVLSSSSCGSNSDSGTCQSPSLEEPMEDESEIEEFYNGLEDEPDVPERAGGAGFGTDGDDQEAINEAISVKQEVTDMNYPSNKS
Conditions: Howitz et al., 2003; Wood et al., 2004; cited from earlier work.

A further data set deals with C57BL/6J mice. Briefly: Context- and tone-dependent Pavlovian fear conditioning, icv. injection. It counts as in vivo. The settings on record: vs. vehicle. From the text:
A fundamental type of learning is associative learning that can be analyzed in rodents using the pavlovian fear conditioning paradigm (Fendt and Fanselow, 1999; Fischer et al., 2003). As fear conditioning is a robust and commonly used method to analyze learning and allows to delineate the involvement of distinct brain structures in the learning process, we choose this paradigm to investigate the effect of reveratrol on learning. The principle of Pavlovian fear conditioning is as follows. During the training procedure mice are exposed to a novel context (context 1), consisting of an observation chamber with defined lightning, odor, background noise and geometry. After exploring this novel environment for 180 s the animals are exposed to a tone for 30 s followed by a mild electric foot shock for 2 s. On the basis of associative learning mice display aversive freezing behavior during a memory test consisting of re-expose to the conditioning context 24 h after the training. […] Tone-dependent fear memories can be analyzed by presenting the tone in context 2. Freezing is an inborn behavior that rodents express in threatening situations. It is defined as the complete absence of movement, except respiration and heartbeat. Whereas mice display no freezing behavior during training, a significant increase of freezing behavior is observed upon re-exposure to the conditioned context only. Therefore, freezing behavior is commonly used to quantify the amount of learning. C57BL/6J mice were anesthetized and microcannula (PlasticOne; AP −0 mm, lateral 1 mm, depth 2 mm) were implanted into the lateral brain ventricles (icv). […] The animals were trained by context- and tone-dependent fear conditioning 24 h after the last icv. injection and memory retention was analyzed the following day (see FIG. 1A). […] The mice were tested for memory retention 24 h later by re-exposure to the conditioning context.

The subject of the next data set is CK-p25 mice. The experiment in a line: p25-mediated cognitive decline, fear conditioning in CK-p25 mice. Conditions: p25 induced for 5 weeks, icv. 5 μg/mouse 2-3×/week, vs. vehicle. It counts as in vivo.
Source text: as §1

Data set [2] concerns mice. The experiment in a line: Context- and tone-dependent fear conditioning, intra-hippocampal (i.h.) injection. It counts as in vivo. The settings on record: vs. vehicle. From the text: The principle of Pavlovian fear conditioning is as follows. During the training procedure mice are exposed to a novel context (context 1), consisting of an observation chamber with defined lightning, odor, background noise and geometry. After exploring this novel environment for 180 s the animals are exposed to a tone for 30 s followed by a mild electric foot shock for 2 s. On the basis of associative learning mice display aversive freezing behavior during a memory test consisting of re-expose to the conditioning context 24 h after the training. […] Tone-dependent fear memories can be analyzed by presenting the tone in context 2. Freezing is an inborn behavior that rodents express in threatening situations. It is defined as the complete absence of movement, except respiration and heartbeat. Whereas mice display no freezing behavior during training, a significant increase of freezing behavior is observed upon re-exposure to the conditioned context only. Therefore, freezing behavior is commonly used to quantify the amount of learning. Context-dependent fear conditioning requires the hippocampus whereas tone-dependent fear conditioning relies on an intact amygdala (Kim and Fanselow, 1992).

The mark [3] stands for this setting: icv. 5 μg/mouse for 7 consecutive days, training 24 h after last injection, memory test the following day.
The mark [4] stands for this setting: single icv. injection 5 μg/mouse immediately after training, test 24 h later.

For `CCO` [ethanol], the “freezing behavior during the context-dependent memory test (impairment by ethanol)” value with mice [1] (ip. 33% ethanol/PBS immediately after training) is recorded as “impaired freezing behavior; also recorded: severe impaired freezing”.
As for `Oc1ccc(C=Cc2cc(O)cc(O)c2)cc1` [resveratrol, 3,5,4′-tri-hydroxystilbene], in the data set with mice [1] (ip. 30 mg/kg resveratrol in 33% ethanol/PBS immediately after training, compared with PBS and ethanol groups, 30 mg/kg), the “freezing behavior during the context-dependent memory test (prevention of ethanol-induced impairment)” value was “performed indistinguishable to mice injected only with PBS; also recorded: attenuated this effect”. The “agonism of the Sirt1 deacetylase” value at Sirt1 deacetylase is given as “potent agonist”. Moreover, the “freezing behavior during the context-dependent memory test” value is “significantly increased freezing behavior” with C57BL/6J mice (setting [3]), “significantly increased freezing behavior; also recorded: significantly enhanced freezing” with C57BL/6J mice (setting [4]) and “significantly enhanced freezing behavior” in the data set with mice [2] (i.h. 5 μg/mouse 4 h after the training). Also, the “freezing behavior during the tone-dependent memory test” value in the data set on C57BL/6J mice (setting [3]) and in the data set on C57BL/6J mice (setting [4]) was “significantly increased freezing behavior” each time. Besides, the “freezing behavior, memory retention 24 h after fear conditioning” value in the data set with CK-p25 mice is reported as “significantly enhanced”. In addition, the “freezing during the tone-dependent memory test” value in the data set with mice [2] (i.h. 5 μg/mouse immediately or 4 h after the training) was “not different among groups”.
